The values that follow come from US8329454B2, “Device for detecting a cholinesterase-inhibiting substance comprising a hydrophilic photo-crosslinkable resin” (priority 2008, dated 2012).

The test system of assay [1] is cholinesterase. As to the kind of experiment: Visual detection with the cholinesterase detection device after on-column NBS oxidation (Example 1). Particulars: for Detection Level (ppb): Table 1, tested in the same manner as Example 1 (NBS oxidation).
In assay [2] the test system is cholinesterase. The note with it: prior-art kit AT-10/AT-25 (Agriscreen Ticket 10/25) by NEOGEN; cited from earlier work.
Assay [3] deals with cholinesterase. Briefly: Visual detection with the cholinesterase detection device without oxidation treatment (Comparative Example 1, Example 2). The format is biochemical. Particulars: for Detection Level (ppb): Table 1, agrichemicals marked *, taken as tested in the same manner as Example 2 (no NBS oxidation). On the procedure:
This is a comparative experiment for confirming the effect of oxidation treatment (NBS solution suction treatment) in Example 1. In the same manner as in Example 1, the column was made to adsorb diazinone in the sample, and then not processed for oxidation treatment (NBS solution suction treatment), diazinone was eluted from the column. The eluate was added to the detection device, and an indoxyl acetate solution was added to the device.
The detection method was to follow the process shown in FIG. 3; however, since a carbamate agrichemical was the object to be detected, the NBS solution suction and discharge operation attained in Example 1 was omitted here.
As a sample, prepared was 10 mL of an aqueous solution of a carbaryl (NAC) standard liquid of a carbamate agrichemical having a diluted concentration of 10 ppb; and this was sucked in the syringe with a column chip connected to the tip thereof, as shown in FIG. 2.
The sucked solution was discharged in a beaker and again sucked, and this cycle was repeated three times whereby the sample NAC was adsorbed by the column. Subsequently, NAC was eluted from the column, and put into the device to undergo an enzyme inhibitory reaction for 5 minutes therein.
After 5 minutes, a coloring substrate of an indoxyl acetate solution was added to the device, and underwent coloration reaction for 5 minutes.
Other agrichemical substances were tested in the same manner as in Example 1 and Example 2, and the following results were obtained.

For `CCOP(=S)(Oc1ccc([N+](=O)[O-])cc1)c1ccccc1` (centres unmarked) [EPN], in the assay with cholinesterase [1], the “Detection Level (ppb)” value was determined as 40 ppb.

Consider `CCOP(=S)(OCC)SCn1nnc2ccccc2c1=O` [azinphos-ethyl], for which, in the assay on cholinesterase [1], the “Detection Level (ppb)” value is 1 ppb.

Take `COP(=S)(OC)SCn1nnc2ccccc2c1=O` [azinphos-methyl]: in the assay with cholinesterase [1], the “Detection Level (ppb)” value was determined as 8 ppb.

For `CCOP(=S)(OCC)Oc1cc(Cl)c(Br)cc1Cl` [bromofos-ethyl], the “Detection Level (ppb)” value with cholinesterase [1] was 10 ppb.

`CCOP(=S)(NC(C)CC)Oc1cc(C)ccc1[N+](=O)[O-]` (centres unmarked) [butamifos]: the “Detection Level (ppb)” value in the assay with cholinesterase [1] is 100 ppb.

With `CNC(=O)Oc1cccc2ccccc12` [carbaryl], the detection limit result in the assay with cholinesterase [2] is “around 7.0 ppm”. Also, in the assay with cholinesterase [3] (Example 2: 10 mL aqueous sample, adsorbed on column, no NBS step, 5 min inhibition, indoxyl acetate 5 min, no coloration), the “detected at a concentration level” value turned out to be 10 ppb.

`CCOP(=O)(OCC)O/C(=C\Cl)c1ccc(Cl)cc1Cl` [chlorfenvinphos]: in the assay with cholinesterase [1], the “Detection Level (ppb)” value is listed as 40 ppb.

Turning to `COP(=S)(OC)Oc1nc(Cl)c(Cl)cc1Cl` [chlorpyrifos-methyl], in the assay on cholinesterase [2], the detection limit is listed as around 1.0 ppm. In the assay on cholinesterase [1], the “Detection Level (ppb)” value was determined as 1 ppb.

Turning to `CCOP(=S)(OCC)Oc1nc(Cl)c(Cl)cc1Cl` [chlorpyrifos], the detection limit in the assay with cholinesterase [2] is given as around 0.7 ppm. Further, the “Detection Level (ppb)” value with cholinesterase [1] is given as 0.2 ppb.

In the case of `CCOP(=S)(OCC)Oc1ccc2c(C)c(Cl)c(=O)oc2c1` [coumafos], in the assay on cholinesterase [1], the “Detection Level (ppb)” value is 2 ppb.

Consider `CCOP(=S)(OCC)Oc1cc(C)nc(C(C)C)n1` [diazinone], for which the detection limit in the assay on cholinesterase [2] is given as around 2.0 ppm. In addition, the “detected at a concentration level” value with cholinesterase [1] (Example 1: 10 mL aqueous sample, adsorbed on column, 1% NBS oxidation to oxon form, 5 min inhibition, indoxyl acetate 5 min, no coloration) is 0.1 ppb. Further, in the assay on cholinesterase [3] (Comparative Example 1: as Example 1 but no oxidation treatment (no NBS)), the detection level is reported as 5 ppm.

Regarding `CCOP(=S)(OCC)Oc1ccc(Cl)cc1Cl` [dichlofenthion], in the assay with cholinesterase [1], the “Detection Level (ppb)” value was determined as 100 ppb.

Regarding `COP(=O)(OC)O/C(=C/Cl)c1ccc(Cl)cc1Cl` [dimethylvinphos(E)], the “Detection Level (ppb)” value in the assay with cholinesterase [1] turned out to be 100 ppb.

Consider `COP(=O)(OC)O/C(=C\Cl)c1ccc(Cl)cc1Cl` [dimethylvinphos(Z)], for which, in the assay with cholinesterase [1], the “Detection Level (ppb)” value amounted to 100 ppb.

Regarding `CCOP(=S)(OCC)SCSP(=S)(OCC)OCC` [ethion], the “Detection Level (ppb)” value with cholinesterase [1] was found to be 10 ppb.

Take `CCCSP(=O)(OCC)SCCC` [etoprophos]: the “Detection Level (ppb)” value in the assay with cholinesterase [1] is recorded as 100 ppb.

For `COP(=S)(OC)Oc1ccc([N+](=O)[O-])c(C)c1` [fenitrothion], the “Detection Level (ppb)” value in the assay on cholinesterase [1] is given as 40 ppb.

On to `CCOP(=S)(OCC)Oc1ccc([S+](C)[O-])cc1` (centres unmarked) [fensulfothion], for which the “Detection Level (ppb)” value in the assay with cholinesterase [1] stood at 100 ppb.

With `CCOP(=S)(OCC)Oc1cc(-c2ccccc2)on1` [isoxathion], in the assay with cholinesterase [1], the “Detection Level (ppb)” value is given as 0.2 ppb.

On to `CNC(=O)/C=C(\C)OP(=O)(OC)OC` [monocrotophos], for which the “Detection Level (ppb)” value in the assay on cholinesterase [1] was determined as 100 ppb.

With `CCOP(=S)(OCC)Oc1ccc([N+](=O)[O-])cc1` [parathion], the “Detection Level (ppb)” value in the assay on cholinesterase [1] amounted to 0.8 ppb.

In the case of `CCOP(=S)(OCC)SCSCC` [phorate], the “Detection Level (ppb)” value in the assay on cholinesterase [1] amounted to 80 ppb.

Consider `CCOP(=S)(OCC)SCn1c(=O)oc2cc(Cl)ccc21` [phosalone], for which the “Detection Level (ppb)” value in the assay with cholinesterase [1] is reported as 6 ppb.

`Cc1nc(N(C)C)nc(OC(=O)N(C)C)c1C` [pirimicarb]: the “Detection Level (ppb)” value in the assay on cholinesterase [3] came to 8 ppb.

In the case of `CCCOP(=O)(OCCC)Oc1ccc(SC)cc1` [propafos], the “Detection Level (ppb)” value with cholinesterase [1] came out at 1 ppb.

Regarding `CCOP(=S)(OCC)Oc1ccc(=O)n(-c2ccccc2)n1` [pyridaphenthion], the “Detection Level (ppb)” value in the assay with cholinesterase [1] is 1 ppb.

For the molecule `CCN(CC)c1nc(C)cc(OP(=S)(OC)OC)n1` [pyrimiphos-methyl], the “Detection Level (ppb)” value with cholinesterase [1] is reported as 20 ppb.

As to `CCOP(=S)(OCC)Oc1cnc2ccccc2n1` [quinalphos], in the assay on cholinesterase [1], the “Detection Level (ppb)” value worked out at 0.1 ppb.

As to `COP1(=S)OCc2ccccc2O1` (centres unmarked) [salithion], the “Detection Level (ppb)” value in the assay on cholinesterase [1] is recorded as 100 ppb.

For `CCCSP(=S)(OCC)Oc1ccc(SC)cc1` (centres unmarked) [sulprofos], the “Detection Level (ppb)” value in the assay on cholinesterase [1] worked out at 20 ppb.

With `CCOP(=S)(OCC)SCSC(C)(C)C` [terbufos], the “Detection Level (ppb)” value in the assay on cholinesterase [1] turned out to be 10 ppb.

Turning to `CS/C(C)=N\OC(=O)N(C)SN(C)C(=O)O/N=C(\C)SC` [thiodicarb], the “Detection Level (ppb)” value in the assay on cholinesterase [3] turned out to be 20 ppb.

With etorifos, the “Detection Level (ppb)” value in the assay with cholinesterase [1] is listed as 10 ppb.
